Reference: ChEMBL document CHEMBL1201862, “PubChem BioAssay data set” (2004)
Activity calls are given as the source filed them.

How the values were obtained:
[1] = target: Peroxisome proliferator-activated receptor gamma/Nuclear receptor coactivator 2 (Homo sapiens, UniProt P37231); format: functional;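 further: agonist potency for raising coactivator recruitment to the receptor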
[2] = target: Peroxisome proliferator-activated receptor gamma/Nuclear receptor coactivator 3 (Homo sapiens, UniProt P37231); format: functional;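 further: agonist potency for raising coactivator recruitment to the receptor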
[3] = target: Peroxisome proliferator-activated receptor gamma/Nuclear receptor coactivator 1 (Homo sapiens, UniProt P37231); format: functional;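 further: agonist potency as compounds enhance coactivator SRC-1 recruitment to PPARgamma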
Chain of Peroxisome proliferator-activated receptor gamma/Nuclear receptor coactivator 1 (P37231 whole entry): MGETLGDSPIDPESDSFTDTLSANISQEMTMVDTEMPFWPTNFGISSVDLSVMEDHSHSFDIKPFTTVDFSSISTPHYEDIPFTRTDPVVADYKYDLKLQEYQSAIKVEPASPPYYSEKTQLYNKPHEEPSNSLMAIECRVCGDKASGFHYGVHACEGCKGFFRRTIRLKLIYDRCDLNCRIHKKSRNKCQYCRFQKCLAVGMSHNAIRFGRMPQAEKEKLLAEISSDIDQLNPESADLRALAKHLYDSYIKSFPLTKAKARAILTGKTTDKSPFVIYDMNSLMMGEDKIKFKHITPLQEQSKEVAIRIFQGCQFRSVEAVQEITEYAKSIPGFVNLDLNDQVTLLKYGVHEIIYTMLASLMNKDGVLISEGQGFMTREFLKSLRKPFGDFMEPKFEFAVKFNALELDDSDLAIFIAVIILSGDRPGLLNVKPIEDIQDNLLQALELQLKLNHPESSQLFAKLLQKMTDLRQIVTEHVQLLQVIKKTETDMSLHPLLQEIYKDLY
Chain of Peroxisome proliferator-activated receptor gamma/Nuclear receptor coactivator 1 (Q15788 whole entry, further chain): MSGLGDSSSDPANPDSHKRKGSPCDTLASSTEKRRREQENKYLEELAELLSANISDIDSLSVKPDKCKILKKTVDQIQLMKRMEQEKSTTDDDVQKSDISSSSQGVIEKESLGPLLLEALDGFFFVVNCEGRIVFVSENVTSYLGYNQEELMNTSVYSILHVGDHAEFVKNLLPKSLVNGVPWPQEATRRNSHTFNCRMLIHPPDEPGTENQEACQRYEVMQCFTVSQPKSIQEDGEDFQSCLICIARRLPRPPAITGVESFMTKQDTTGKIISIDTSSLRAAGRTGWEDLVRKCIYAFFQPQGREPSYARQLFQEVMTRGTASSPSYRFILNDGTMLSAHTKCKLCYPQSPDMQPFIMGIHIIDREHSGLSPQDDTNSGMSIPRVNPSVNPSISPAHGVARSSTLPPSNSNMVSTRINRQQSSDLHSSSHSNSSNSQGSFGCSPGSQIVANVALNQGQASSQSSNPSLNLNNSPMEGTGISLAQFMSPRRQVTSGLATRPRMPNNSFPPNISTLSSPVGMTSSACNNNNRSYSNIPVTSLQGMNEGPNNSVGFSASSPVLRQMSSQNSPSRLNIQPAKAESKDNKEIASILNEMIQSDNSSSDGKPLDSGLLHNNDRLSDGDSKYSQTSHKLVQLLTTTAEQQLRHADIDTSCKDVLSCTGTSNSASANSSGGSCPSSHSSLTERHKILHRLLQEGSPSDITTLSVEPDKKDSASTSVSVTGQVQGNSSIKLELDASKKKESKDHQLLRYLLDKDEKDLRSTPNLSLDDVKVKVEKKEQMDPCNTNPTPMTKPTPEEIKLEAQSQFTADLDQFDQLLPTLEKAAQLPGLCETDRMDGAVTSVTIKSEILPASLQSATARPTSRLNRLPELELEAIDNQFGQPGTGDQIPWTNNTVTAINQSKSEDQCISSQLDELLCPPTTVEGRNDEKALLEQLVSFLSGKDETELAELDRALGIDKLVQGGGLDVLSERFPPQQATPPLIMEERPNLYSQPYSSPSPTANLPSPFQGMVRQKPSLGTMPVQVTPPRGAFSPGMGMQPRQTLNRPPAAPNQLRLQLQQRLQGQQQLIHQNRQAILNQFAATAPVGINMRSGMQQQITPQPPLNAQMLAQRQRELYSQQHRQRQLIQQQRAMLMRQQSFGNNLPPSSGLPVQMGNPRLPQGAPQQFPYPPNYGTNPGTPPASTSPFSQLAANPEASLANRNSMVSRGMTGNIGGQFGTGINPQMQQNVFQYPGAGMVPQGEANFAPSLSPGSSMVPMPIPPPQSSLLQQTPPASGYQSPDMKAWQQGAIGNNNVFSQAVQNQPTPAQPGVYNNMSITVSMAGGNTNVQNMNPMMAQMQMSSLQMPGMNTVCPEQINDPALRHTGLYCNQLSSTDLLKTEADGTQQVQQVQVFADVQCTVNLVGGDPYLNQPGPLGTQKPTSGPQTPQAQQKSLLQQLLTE

[4] = target: T1, Adenosylmethionine-8-amino-7-oxononanoate aminotransferase (Mycobacterium tuberculosis, UniProt P9WQ81); assay: Mycobacterium tuberculosis BioA enzyme inhibitor Measured in Biochemical System Using Plate Reader - 2163-02_Inhibitor_Dose_CherryPick_Activity.; format: functional, Mycobacterium tuberculosis UT205
T1 sequence (P9WQ81 whole entry): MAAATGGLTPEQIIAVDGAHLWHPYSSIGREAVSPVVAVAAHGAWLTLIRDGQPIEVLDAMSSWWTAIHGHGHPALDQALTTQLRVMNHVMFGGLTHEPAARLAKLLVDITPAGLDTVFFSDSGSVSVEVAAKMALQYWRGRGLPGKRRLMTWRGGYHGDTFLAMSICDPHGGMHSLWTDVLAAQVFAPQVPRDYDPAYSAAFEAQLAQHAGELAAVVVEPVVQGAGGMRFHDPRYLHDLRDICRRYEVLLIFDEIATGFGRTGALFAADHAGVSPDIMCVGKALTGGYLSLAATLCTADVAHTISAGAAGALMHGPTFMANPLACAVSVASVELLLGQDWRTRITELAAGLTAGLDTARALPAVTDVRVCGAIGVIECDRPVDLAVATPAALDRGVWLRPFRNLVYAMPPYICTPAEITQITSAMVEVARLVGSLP

[5] = OVCAR-3 cell viability loss – plate reader, dry powder samples, PAX8 inhibitor project, dose response (AID 743044); format: functional, cell-based
Paired box protein Pax-8 = Paired box protein Pax-8 (Homo sapiens, UniProt Q06710); assay: PAX8 transcriptional activity inhibition in RMG-I – RMG-I cells, luciferase, cherry-pick, dose response (AID 687027); format: functional, cell-based;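 further: luciferase reporter driven by Pax8 target thyroperoxidase promoter measured by SteadyGlo luminescence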
Chain of Paired box protein Pax-8 (Q06710 whole entry): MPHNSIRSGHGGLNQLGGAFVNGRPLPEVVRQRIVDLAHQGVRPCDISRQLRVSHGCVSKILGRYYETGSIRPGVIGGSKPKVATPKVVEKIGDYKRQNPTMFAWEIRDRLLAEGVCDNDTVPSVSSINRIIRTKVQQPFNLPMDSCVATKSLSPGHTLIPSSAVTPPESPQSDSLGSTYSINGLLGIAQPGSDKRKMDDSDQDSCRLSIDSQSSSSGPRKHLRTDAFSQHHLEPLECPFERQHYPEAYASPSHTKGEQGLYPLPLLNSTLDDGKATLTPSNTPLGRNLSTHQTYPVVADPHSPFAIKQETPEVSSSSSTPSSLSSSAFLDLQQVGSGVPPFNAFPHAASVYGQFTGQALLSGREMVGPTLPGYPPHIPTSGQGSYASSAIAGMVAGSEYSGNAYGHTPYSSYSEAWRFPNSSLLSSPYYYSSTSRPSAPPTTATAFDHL

[6] = OVCAR8 cell viability loss – plate reader, dry powder samples, PAX8 project, dose response (AID 743197); format: functional, cell-based; conditions: OVCAR-8
[7] = IGROV1 cell killing – plate reader, dry powder samples, PAX8 inhibitor project, dose response (AID 743043); format: functional, cell-based; conditions: IGROV-1
[8] = A2780 cell killing – plate reader, dry powder samples, cytotoxicity control, dose response (AID 743046); format: functional, cell-based
Beta-galactosidase = Beta-galactosidase (Escherichia coli, UniProt Q8VNN2); assay: Dose response counterscreen for EBI2 assay utilizing the enzyme, b-galactosidase.; format: functional
Chain of Beta-galactosidase (Q8VNN2 whole entry): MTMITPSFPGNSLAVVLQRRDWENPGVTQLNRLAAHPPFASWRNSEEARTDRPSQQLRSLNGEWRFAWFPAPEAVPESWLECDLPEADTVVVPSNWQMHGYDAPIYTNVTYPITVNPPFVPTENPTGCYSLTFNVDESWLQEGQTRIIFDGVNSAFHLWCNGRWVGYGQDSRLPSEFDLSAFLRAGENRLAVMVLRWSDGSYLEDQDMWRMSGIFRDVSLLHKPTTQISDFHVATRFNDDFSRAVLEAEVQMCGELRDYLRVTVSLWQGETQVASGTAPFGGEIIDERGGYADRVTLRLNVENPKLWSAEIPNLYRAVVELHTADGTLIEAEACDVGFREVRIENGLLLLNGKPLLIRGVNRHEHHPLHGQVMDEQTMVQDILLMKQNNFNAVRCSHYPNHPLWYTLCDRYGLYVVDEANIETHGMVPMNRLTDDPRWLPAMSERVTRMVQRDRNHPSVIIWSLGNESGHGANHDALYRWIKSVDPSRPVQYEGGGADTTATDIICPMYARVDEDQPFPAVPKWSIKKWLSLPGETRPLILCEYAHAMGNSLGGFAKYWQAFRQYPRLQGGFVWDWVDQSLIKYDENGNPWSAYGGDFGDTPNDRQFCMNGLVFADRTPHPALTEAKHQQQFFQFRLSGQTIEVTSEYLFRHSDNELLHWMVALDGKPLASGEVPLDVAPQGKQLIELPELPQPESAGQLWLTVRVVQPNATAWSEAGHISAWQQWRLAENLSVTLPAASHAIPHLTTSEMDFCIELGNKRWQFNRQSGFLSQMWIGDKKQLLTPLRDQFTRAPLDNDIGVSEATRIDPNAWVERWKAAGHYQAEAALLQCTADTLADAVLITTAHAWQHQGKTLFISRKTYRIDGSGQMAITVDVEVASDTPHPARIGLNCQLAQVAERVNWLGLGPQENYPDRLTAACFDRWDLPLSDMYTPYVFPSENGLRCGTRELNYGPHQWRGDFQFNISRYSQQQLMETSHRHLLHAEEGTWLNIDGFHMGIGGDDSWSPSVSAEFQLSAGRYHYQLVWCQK

[9] = target: T2, Mannose-6-phosphate isomerase (Homo sapiens, UniProt P34949); assay: MPI inhibition at elevated mannose 6-phosphate – biochemical, fluorescence intensity, high mannose 6-phosphate, primary screen (AID 1220)
T2 sequence (P34949 whole entry): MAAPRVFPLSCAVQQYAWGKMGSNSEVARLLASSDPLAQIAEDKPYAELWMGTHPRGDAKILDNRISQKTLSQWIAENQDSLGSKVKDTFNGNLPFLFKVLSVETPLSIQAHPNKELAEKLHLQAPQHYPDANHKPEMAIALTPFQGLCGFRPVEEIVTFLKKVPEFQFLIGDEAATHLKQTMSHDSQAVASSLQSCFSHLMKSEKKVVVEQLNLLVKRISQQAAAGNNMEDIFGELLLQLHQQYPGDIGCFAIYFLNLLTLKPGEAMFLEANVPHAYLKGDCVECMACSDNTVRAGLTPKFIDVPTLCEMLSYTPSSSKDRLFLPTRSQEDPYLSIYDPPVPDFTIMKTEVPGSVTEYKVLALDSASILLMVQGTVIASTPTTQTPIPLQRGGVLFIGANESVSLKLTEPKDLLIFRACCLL

[10] = target: Induced myeloid leukemia cell differentiation protein Mcl-1 (Homo sapiens, UniProt Q07820); format: functional
Chain of Induced myeloid leukemia cell differentiation protein Mcl-1 (Q07820 whole entry): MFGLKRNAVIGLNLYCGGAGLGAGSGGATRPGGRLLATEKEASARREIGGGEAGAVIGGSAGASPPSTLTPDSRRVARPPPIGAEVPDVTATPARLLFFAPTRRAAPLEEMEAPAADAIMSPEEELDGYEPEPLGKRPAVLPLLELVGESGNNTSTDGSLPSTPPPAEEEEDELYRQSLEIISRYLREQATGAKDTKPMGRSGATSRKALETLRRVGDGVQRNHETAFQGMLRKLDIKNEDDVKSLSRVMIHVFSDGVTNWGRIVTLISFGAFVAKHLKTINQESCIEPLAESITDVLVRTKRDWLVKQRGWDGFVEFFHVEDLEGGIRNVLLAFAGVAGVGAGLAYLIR

CN(CP(=O)(O)CN(C)S(C)(=O)=O)S(C)(=O)=O
EC50 [1]: > 79.4 µM (not active) | EC50 [2]: > 79.4 µM (not active) | EC50 [3]: > 79.4 µM (not active)

COC(=O)c1c(C(=O)OC)c(-c2cccc(F)c2)n2c1C[S+]([O-])C2 (stereo not given)
AC50 [4]: 0.659 µM (active)

C[C@@H]1CN([C@H](C)CO)C(=O)c2cc(NS(=O)(=O)c3cccs3)ccc2O[C@@H](C)CCCCO[C@@H]1CN(C)Cc1ccc(Cl)c(Cl)c1
AC50 [5]: 16.9 µM (active) | AC50 (Paired box protein Pax-8): 4.91 µM (active) | AC50 [6]: 20.5 µM (active) | AC50 [7]: 26.5 µM (active) | AC50 [8]: 27.8 µM (active)

C[C@@H]1CCCCO[C@@H](CN(C)S(=O)(=O)c2ccc(Cl)cc2)[C@H](C)CN([C@H](C)CO)C(=O)c2cc(NS(=O)(=O)c3ccc(Cl)cc3)ccc2O1
AC50 [5]: 17.7 µM (active) | AC50 (Paired box protein Pax-8): 3.27 µM (active) | AC50 [6]: 19.5 µM (active) | AC50 [7]: 21.7 µM (active) | AC50 [8]: 55.8 µM (active)

COc1cc(-c2nc3ccccc3nc2-c2ccc(O)c(OC)c2)ccc1O
AC50 [4]: 3.99 µM (active)

COc1ccc(-c2nc3ccc(Cl)cn3c2Cc2ccccc2)cc1OC
AC50 [4]: 10.6 µM (active)

O=[N+]([O-])c1ccc(NN=Cc2cc(Br)ccc2O)nc1
IC50 (Beta-galactosidase): 39.2 µM (active)

COC(=O)c1ccc(/N=c2\sc(C(=O)OC)cc(=O)n2C)cc1
IC50 (Beta-galactosidase): > 80 µM (inactive)

CCN(CC)c1ccc(NC(=S)Nc2ccc(F)cc2)cc1
IC50 [9]: > 50 µM (not active)

CSc1nc(N(C)CCO)c2sc3nc(-c4ccco4)c4c(c3c2n1)CCC4
IC50 [10]: 5.59 µM (active)
